Source: patent US7601686B2, “Hepatitis C virus inhibitors” (Bristol-Myers Squibb Company, priority 2005, dated 2009)

Assays:
[1] = tested on: HCV replicon in HUH-7 cells; assay: HCV replicon FRET assay; assay type: cell-based, Hepatitis C virus (strain 1b); conditions: Hepatitis C virus; HCV replicon cell assay, HUH-7; read-out: EC50 Range
From the text: Generation of HCV Replicon
An HCV replicon whole cell system was established as described by Lohmann V, Korner F, Koch J, Herian U, Theilmann L, Bartenschlager R., Science 285(5424):110-3 (1999). This system enabled us to evaluate the effects of our HCV Protease compounds on HCV RNA replication. Briefly, using the HCV strain 1b sequence described in the Lohmann paper (Assession number:AJ238799), an HCV cDNA was synthesized by Operon Technologies, Inc. (Alameda, Calif.), and the full-length replicon was then assembled in plasmid pGem9zf(+) (Promega, Madison, Wis.) using standard molecular biology techniques. The replicon consists of (i) the HCV 5′ UTR fused to the first 12 amino acids of the capsid protein, (ii) the neomycin phosphotransferase gene (neo), (iii) the IRES from encephalomyocarditis virus (EMCV), and (iv) HCV NS3 to NS5B genes and the HCV 3′ UTR. Plasmid DNAs were linearized with ScaI and RNA transcripts were synthesized in vitro using the T7 MegaScript transcription kit (Ambion, Austin, Tex.) according to manufacturer's directions. In vitro transcripts of the cDNA were transfected into the human hepatoma cell line, HUH-7. […] Resulting cell lines were characterized for positive and negative strand RNA production and protein production over time.
The HCV replicon FRET assay was developed to monitor the inhibitory effects of compounds described in the disclosure on HCV viral replication. HUH-7 cells, constitutively expressing the HCV replicon, were grown in Dulbecco's Modified Eagle Media (DMEM) (Gibco-BRL) containing 10% Fetal calf serum (FCS) (Sigma) and 1 mg/mL G418 (Gibco-BRL). Cells were seeded the night before (1.5×10^4 cells/well) in 96-well tissue-culture sterile plates. Compound and no compound controls were prepared in DMEM containing 4% FCS, 1:100 Penicillin/Streptomysin (Gibco-BRL), 1:100 L-glutamine and 5% DMSO in the dilution plate (0.5% DMSO final concentration in the assay). Compound/DMSO mixes were added to the cells and incubated for 4 days at 37° C. After 4 days, cells were first assessed for cytotoxicity using alamar Blue (Trek Diagnotstic Systems) for a CC50 reading. The toxicity of compound (CC50) was determined by adding 1/10th volume of alamar Blue to the media incubating the cells. After 4 h, the fluorescence signal from each well was read, with an excitation wavelength at 530 nm and an emission wavelength of 580 nm, using the Cytofluor Series 4000 (Perspective Biosystems). Plates were then rinsed thoroughly with Phosphate-Buffered Saline (PBS) (3 times 150 μl).

[2] = target: T1, HCV NS3/4A protease complex, BMS strain (UniProt P27958, species not given/STRAIN_BMS); assay: FRET peptide assay to monitor HCV NS3/4A proteolytic activity (BMS strain); assay type: biochemical, Hepatitis C virus (genotype 1a); conditions: NS3/4A BMS strain, enzyme assay; read-out: IC 50 Range
T1 construct: DNA encoding the recombinant HCV NS3/4A protease complex (amino acids 1027 to 1711) for these strains [H77 and J4L6S]; fused on or other part: For the H77 and J4L6S constructs, a three-lysine solubilising tail at the NS4A C-terminus and a Ni-NTA-purifiable tag from pET21b
How it was run: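 Recombinant NS3/4A complexes (aa 1027–1711) with C-terminal three-lysine tail, C1711G and C1454S, expressed in E. coli BL21(DE3) (0.5 mM IPTG, 22 h, 20°C) for H77 (1a) and J4L6S (1b); BMS strain is genotype 1a patient isolate. Purified by Ni-NTA and Superdex-S200; proteolysis monitored by FRET peptide cleavage.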

T1 sequence (P27958 1027-1657, stated change not applied, one chain of several): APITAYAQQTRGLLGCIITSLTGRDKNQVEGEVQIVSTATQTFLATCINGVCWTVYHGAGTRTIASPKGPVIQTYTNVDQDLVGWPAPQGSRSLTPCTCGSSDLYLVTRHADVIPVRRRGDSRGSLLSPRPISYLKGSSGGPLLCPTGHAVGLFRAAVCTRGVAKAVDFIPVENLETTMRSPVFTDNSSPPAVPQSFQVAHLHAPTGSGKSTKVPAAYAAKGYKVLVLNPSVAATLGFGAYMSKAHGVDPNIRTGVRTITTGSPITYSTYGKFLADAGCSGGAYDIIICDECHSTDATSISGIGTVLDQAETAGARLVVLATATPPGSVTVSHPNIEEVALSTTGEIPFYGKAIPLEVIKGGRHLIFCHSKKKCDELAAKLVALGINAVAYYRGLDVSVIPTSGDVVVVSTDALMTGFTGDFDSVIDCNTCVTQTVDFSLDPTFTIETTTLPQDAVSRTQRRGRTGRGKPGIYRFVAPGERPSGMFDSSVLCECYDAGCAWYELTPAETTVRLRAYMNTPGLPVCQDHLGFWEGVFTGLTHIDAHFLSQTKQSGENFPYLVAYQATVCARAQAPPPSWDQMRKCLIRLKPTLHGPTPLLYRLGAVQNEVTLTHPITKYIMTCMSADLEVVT

| SMILES | EC50 [1] | IC50 [2] |
| --- | --- | --- |
| C=CC1CC1(NC(=O)[C@@H]1C[C@@H](NC(=O)c2sc3ccccc3c2Cl)CN1C(=O)[C@@H](NC(=O)CC1CC1)C(C)(C)C)C(=O)NS(=O)(=O)C1CC1 (some centres unmarked) [Compound 29] | 0.15 to 15 µM | < 0.15 µM |
| C=CC1CC1(NC(=O)[C@@H]1C[C@@H](NC(=O)c2cc(Cl)nc3ccccc23)CN1C(=O)[C@@H](NC(=O)CC1CC1)C(C)(C)C)C(=O)NS(=O)(=O)C1CC1 (some centres unmarked) [Compound 13] | > 15 µM | 0.15 to 15 µM |
| C=CC1CC1(NC(=O)[C@@H]1C[C@@H](NC(=O)n2ccc3cccnc32)CN1C(=O)[C@@H](NC(=O)CC1CC1)C(C)(C)C)C(=O)NS(=O)(=O)C1CC1 (some centres unmarked) [Compound 50] | 0.15 to 15 µM | < 0.15 µM |
| C=CC1CC1(NC(=O)[C@@H]1C[C@@H](NS(=O)(=O)c2cccc3c(N(C)C)cccc23)CN1C(=O)[C@@H](NC(=O)OC(C)(C)C)C(C)(C)C)C(=O)NS(=O)(=O)C1CC1 (some centres unmarked) [Compound 49] | > 15 µM | 0.15 to 15 µM |
